Reference: patent US5603951A, “Cyclosporin-containing soft capsule compositions” (Hanmi Pharm. Ind. Co., Ltd., priority 1994, dated 1997)

Assay: Change in cosurfactant content of soft capsules over storage at room temperature (membrane permeation, gas chromatography)
Format: physicochemical
Procedure: The content of the cosurfactant in each soft capsule preparation was analyzed by gas chromatography.
Conditions of gas chromatography for each cosurfactant
Column: Ultra 2 (Crosslinked 2% phenylmethyl silicone gun phase, 25 m
× 0.32 mm, thickness 0.52 μm)
Column temperature: 230° C. (Isothermal)
Detector: FID (Temperature: 270° C.)
Injection temperature: 275° C.
Carrier gas: He (Partition ratio 80:1)
Internal standard: Octyl alcohol
Column: HP20M (Carbowax 20M) (25 m × 0.32 mm, film thickness 0.3
Column temperature: 30° C. (Isothermal)
Detector: FID (Temperature: 200° C.)
Injection temperature: 150° C.
Internal standard: Diethyl ether

Row | SMILES | Change of cosurfactant content in soft capsule after 10 days (in words) | Cosurfactant content reduced by, of the initial content, after 10 days (soft capsule) [%]
1 | CO[C@H]1CO[C@H]2[C@@H]1OC[C@H]2OC [dimethylisosorbide] | does not change in its content | 
2 | CCO [ethanol] |  | 27.8
